ChEMBL document CHEMBL5154740, “Novel Aurora A and Protein Kinase C (α, β1, β2, and θ) Multitarget Inhibitors: Impact of Selenium Atoms on the Potency and Selectivity” (J Med Chem, 2022)

Assays:
[1] = target: Fibroblast growth factor receptor 1 (Homo sapiens) (UniProt P11362); test: Inhibition of FGFR1 (unknown origin) at 50 nM by Z'LYTE screening method relative to control
[2] = target: Ribosomal protein S6 kinase alpha-1 (Homo sapiens) (UniProt Q15418); test: Inhibition of RPS6KA1 (unknown origin) at 50 nM by Z'LYTE screening method relative to control
[3] = target: Protein kinase C eta type (Homo sapiens, UniProt P24723); test: Inhibition of PKCeta (unknown origin) at 50 nM by Z'LYTE screening method relative to control
[4] = target: Receptor tyrosine-protein kinase erbB-2 (Homo sapiens) (UniProt P04626); test: Inhibition of ERBB2 (unknown origin) at 50 nM by Z'LYTE screening method relative to control
Homo sapiens = species: Homo sapiens; test: Inhibition of CDK1/Cyclin B (unknown origin) at 50 nM by Z'LYTE screening method relative to control
[5] = target: T1, Protein kinase C epsilon type (Homo sapiens) (UniProt Q02156); test: Inhibition of PKCepsilon (unknown origin) at 50 nM by Z'LYTE screening method relative to control
T1 sequence (whole entry): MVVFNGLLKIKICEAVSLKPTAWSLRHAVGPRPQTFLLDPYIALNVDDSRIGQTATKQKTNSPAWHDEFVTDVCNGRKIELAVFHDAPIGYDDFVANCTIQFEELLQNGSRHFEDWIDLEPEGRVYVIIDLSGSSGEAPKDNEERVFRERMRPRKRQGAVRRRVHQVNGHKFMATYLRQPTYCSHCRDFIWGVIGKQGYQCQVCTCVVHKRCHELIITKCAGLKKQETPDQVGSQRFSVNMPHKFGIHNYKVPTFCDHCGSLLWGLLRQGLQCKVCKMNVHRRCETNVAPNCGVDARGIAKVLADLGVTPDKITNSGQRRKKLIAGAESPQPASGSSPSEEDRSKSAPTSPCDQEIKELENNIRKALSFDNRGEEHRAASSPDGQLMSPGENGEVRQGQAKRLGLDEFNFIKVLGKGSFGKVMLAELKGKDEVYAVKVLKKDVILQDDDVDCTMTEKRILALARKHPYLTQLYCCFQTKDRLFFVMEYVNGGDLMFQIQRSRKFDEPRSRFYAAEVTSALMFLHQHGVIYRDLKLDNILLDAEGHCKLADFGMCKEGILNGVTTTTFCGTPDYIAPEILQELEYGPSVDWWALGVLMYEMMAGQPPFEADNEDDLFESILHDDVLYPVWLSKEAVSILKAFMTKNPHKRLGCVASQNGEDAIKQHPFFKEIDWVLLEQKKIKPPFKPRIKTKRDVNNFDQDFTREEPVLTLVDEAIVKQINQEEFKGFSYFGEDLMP

[6] = target: RAC-alpha serine/threonine-protein kinase (Homo sapiens) (UniProt P31749); test: Inhibition of AKT1 (unknown origin) at 50 nM by Z'LYTE screening method relative to control
[7] = target: Protein kinase C delta type (Homo sapiens) (UniProt Q05655); test: Inhibition of PKCdelta (unknown origin) at 50 nM by Z'LYTE screening method relative to control
[8] = target: Hepatocyte growth factor receptor (Homo sapiens) (UniProt P08581); test: Inhibition of cMet (unknown origin) at 50 nM by Z'LYTE screening method relative to control
[9] = target: DNA-dependent protein kinase catalytic subunit (Homo sapiens) (UniProt P78527); test: Inhibition of DNA-PK (unknown origin) at 50 nM by Z'LYTE screening method relative to control
Sequence of DNA-dependent protein kinase catalytic subunit (Homo sapiens) (P78527 whole entry): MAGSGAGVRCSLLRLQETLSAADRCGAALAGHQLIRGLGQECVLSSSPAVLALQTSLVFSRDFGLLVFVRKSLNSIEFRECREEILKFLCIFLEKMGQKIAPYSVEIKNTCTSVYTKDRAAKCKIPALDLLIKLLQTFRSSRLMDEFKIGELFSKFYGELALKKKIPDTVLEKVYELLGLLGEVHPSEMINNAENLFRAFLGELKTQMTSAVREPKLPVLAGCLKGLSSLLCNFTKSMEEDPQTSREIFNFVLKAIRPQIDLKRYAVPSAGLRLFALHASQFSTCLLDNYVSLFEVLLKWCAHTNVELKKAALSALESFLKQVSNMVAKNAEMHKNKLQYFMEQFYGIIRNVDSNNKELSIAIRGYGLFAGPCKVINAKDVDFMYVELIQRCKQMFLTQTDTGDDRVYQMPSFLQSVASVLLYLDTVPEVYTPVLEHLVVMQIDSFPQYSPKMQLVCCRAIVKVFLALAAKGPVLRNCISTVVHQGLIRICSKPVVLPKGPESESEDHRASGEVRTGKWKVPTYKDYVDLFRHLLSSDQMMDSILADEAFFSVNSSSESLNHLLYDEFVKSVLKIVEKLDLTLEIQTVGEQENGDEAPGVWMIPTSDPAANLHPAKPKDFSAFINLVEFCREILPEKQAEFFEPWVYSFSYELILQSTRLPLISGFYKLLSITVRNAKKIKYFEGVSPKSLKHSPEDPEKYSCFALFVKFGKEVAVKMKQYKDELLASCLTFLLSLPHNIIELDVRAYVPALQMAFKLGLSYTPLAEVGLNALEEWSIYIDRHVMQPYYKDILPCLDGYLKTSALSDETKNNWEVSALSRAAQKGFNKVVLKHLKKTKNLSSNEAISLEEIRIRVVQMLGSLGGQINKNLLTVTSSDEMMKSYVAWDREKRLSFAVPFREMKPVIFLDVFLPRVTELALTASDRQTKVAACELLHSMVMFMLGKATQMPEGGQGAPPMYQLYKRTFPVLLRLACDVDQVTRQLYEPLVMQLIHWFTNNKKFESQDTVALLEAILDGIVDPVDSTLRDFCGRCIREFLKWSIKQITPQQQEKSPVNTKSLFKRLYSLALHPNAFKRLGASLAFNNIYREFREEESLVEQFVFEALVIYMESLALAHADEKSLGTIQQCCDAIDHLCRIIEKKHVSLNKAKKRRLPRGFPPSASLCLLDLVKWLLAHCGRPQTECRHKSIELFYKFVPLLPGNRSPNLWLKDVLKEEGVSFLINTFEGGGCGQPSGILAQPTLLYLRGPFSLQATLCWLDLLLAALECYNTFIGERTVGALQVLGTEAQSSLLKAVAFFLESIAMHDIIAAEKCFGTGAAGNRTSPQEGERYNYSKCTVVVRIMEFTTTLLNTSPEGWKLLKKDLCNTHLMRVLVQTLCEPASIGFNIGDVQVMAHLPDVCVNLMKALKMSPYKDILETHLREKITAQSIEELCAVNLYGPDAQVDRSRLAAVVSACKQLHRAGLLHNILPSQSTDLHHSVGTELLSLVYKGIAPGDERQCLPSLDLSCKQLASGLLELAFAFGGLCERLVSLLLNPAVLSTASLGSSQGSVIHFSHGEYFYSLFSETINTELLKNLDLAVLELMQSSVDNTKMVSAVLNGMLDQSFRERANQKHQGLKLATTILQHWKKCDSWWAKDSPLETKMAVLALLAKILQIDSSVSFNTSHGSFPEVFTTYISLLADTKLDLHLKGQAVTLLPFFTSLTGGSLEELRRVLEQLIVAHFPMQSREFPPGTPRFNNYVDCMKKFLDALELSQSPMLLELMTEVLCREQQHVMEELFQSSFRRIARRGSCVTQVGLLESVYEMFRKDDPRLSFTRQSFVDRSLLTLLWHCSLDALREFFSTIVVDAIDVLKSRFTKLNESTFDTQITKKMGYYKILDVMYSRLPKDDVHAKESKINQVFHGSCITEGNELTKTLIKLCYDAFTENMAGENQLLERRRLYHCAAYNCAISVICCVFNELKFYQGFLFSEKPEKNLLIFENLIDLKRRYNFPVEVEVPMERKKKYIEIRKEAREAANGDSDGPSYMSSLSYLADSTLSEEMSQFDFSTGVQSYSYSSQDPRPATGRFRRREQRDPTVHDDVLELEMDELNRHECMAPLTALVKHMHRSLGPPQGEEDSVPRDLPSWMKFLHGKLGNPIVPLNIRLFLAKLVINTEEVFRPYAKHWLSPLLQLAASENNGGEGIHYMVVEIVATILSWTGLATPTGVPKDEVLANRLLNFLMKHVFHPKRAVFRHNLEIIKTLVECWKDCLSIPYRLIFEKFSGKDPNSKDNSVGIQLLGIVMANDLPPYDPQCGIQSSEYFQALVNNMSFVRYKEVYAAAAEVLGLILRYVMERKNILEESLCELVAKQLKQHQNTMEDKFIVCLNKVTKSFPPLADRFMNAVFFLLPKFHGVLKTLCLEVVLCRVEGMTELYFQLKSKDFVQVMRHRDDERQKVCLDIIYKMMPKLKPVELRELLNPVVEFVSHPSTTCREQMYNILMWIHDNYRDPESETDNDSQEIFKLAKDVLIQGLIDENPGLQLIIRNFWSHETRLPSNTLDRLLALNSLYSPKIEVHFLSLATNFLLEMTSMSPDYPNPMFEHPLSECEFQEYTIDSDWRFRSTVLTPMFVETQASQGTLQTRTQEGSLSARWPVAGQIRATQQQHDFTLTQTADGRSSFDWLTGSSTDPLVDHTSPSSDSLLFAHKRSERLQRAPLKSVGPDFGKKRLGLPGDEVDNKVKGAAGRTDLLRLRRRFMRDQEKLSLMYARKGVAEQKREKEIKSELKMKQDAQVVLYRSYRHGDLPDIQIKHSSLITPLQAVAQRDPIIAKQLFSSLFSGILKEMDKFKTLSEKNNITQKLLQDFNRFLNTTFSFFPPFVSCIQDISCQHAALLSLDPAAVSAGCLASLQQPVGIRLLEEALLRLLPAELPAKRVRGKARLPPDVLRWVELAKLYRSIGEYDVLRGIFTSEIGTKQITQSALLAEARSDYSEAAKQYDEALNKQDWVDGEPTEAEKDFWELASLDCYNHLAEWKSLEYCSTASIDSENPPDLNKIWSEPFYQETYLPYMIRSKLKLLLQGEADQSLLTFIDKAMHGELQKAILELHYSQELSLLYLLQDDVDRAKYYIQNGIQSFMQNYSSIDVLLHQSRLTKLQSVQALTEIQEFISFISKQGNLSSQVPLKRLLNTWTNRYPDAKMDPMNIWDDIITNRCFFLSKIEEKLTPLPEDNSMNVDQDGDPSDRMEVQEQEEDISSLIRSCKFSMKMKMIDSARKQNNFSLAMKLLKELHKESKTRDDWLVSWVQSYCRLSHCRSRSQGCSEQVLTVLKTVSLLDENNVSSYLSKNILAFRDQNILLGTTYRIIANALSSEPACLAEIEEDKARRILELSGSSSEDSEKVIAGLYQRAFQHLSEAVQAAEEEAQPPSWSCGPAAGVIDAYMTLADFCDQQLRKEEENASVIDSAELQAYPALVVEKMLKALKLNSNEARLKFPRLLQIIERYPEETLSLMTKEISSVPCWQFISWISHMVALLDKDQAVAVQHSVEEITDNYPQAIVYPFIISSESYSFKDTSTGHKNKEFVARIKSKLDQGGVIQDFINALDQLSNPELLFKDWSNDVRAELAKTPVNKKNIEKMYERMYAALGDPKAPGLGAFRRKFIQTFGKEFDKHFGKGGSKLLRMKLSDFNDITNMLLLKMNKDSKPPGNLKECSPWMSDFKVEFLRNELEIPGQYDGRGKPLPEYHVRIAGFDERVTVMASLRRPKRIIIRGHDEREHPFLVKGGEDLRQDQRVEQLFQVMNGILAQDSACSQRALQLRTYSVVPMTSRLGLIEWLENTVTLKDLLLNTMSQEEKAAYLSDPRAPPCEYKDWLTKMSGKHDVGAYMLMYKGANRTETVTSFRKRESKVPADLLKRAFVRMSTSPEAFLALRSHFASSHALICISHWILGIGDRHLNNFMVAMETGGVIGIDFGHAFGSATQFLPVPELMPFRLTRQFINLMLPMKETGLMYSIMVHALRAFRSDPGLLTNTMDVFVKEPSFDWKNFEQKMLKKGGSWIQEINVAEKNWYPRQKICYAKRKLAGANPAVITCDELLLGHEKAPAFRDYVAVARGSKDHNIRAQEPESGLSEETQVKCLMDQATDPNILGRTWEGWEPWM

[10] = target: Aurora kinase B (Homo sapiens) (UniProt Q96GD4); test: Inhibition of AURB (unknown origin) at 50 nM by Z'LYTE screening method relative to control
Sequence of Aurora kinase B (Homo sapiens) (Q96GD4 whole entry): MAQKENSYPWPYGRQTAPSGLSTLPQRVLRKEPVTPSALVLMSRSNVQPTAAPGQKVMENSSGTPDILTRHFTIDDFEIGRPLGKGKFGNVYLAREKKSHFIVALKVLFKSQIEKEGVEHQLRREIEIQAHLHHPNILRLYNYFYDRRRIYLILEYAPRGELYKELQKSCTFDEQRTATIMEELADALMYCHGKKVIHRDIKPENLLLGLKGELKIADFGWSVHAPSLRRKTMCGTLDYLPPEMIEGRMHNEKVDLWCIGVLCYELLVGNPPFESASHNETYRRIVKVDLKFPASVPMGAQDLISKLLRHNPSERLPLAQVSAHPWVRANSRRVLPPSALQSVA

[11] = target: Proto-oncogene tyrosine-protein kinase Src (Homo sapiens) (UniProt P12931); test: Inhibition of SRC (unknown origin) at 50 nM by Z'LYTE screening method relative to control
Sequence of Proto-oncogene tyrosine-protein kinase Src (Homo sapiens) (P12931 2-536 limits assumed): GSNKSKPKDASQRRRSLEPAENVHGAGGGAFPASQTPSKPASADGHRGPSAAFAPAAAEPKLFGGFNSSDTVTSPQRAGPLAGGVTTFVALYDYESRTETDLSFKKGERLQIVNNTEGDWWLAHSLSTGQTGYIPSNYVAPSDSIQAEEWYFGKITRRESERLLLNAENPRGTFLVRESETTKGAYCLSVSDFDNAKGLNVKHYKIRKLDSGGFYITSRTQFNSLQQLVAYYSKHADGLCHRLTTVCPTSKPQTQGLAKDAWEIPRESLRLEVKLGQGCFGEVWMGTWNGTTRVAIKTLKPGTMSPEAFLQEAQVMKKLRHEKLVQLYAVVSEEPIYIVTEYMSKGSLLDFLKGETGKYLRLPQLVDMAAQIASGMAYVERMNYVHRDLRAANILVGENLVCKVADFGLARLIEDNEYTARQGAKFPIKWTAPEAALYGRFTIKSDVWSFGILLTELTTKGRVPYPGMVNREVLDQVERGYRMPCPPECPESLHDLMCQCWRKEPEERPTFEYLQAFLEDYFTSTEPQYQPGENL

[12] = target: Mitogen-activated protein kinase 1 (Homo sapiens) (UniProt P28482); test: Inhibition of MAPK1 (unknown origin) at 50 nM by Z'LYTE screening method relative to control
[13] = target: PI3-kinase p110-alpha/p85-alpha (Homo sapiens) (UniProt P27986+P42336); test: Inhibition of p110alpha/p85alpha (unknown origin) at 50 nM by Z'LYTE screening method relative to control; format: protein-complex assay
MDA-MB-231 = test: Cytotoxicity against human MDA-MB-231/M cells assessed as reduction in cell viability incubated for 96 hrs by MTT assay; format: functional, cell-based; details: MDA-MB-231, 96 h
[14] = target: T2, Aurora kinase A (Homo sapiens) (UniProt O14965); test: Inhibition of AURA (unknown origin) at 50 nM by Z'LYTE screening method relative to control
T2 sequence (whole entry): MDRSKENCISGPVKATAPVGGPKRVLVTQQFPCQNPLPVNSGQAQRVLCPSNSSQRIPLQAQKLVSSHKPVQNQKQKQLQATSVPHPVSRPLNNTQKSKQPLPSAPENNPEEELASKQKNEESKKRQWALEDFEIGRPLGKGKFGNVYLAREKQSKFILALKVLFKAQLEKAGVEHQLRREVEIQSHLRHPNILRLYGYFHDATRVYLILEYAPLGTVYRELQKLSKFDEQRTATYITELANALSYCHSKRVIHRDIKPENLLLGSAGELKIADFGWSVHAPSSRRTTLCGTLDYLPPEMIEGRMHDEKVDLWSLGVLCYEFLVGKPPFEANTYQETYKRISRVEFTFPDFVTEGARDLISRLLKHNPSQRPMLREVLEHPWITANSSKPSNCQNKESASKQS

[15] = target: Tyrosine-protein kinase ABL1 (Homo sapiens) (UniProt P00519); test: Inhibition of ABL1 (unknown origin) at 50 nM by Z'LYTE screening method relative to control
[16] = target: Ribosomal protein S6 kinase beta-1 (Homo sapiens) (UniProt P23443); test: Inhibition of p70S6K (unknown origin) at 50 nM by Z'LYTE screening method relative to control
[17] = target: Tyrosine-protein kinase SYK (Homo sapiens) (UniProt P43405); test: Inhibition of SYK (unknown origin) at 50 nM by Z'LYTE screening method relative to control
[18] = target: Protein kinase C alpha type (Homo sapiens) (UniProt P17252); test: Inhibition of PKCalpha (unknown origin) at 50 nM by Z'LYTE screening method relative to control

Row | SMILES | inhibition [1] [%] | inhibition [2] [%] | inhibition [3] [%] | inhibition [4] [%] | inhibition (Homo sapiens) [%] | inhibition [5] [%] | inhibition [6] [%] | inhibition [7] [%] | inhibition [8] [%] | inhibition [9] [%] | inhibition [10] [%] | inhibition [11] [%] | inhibition [12] [%] | inhibition [13] [%] | IC50 (MDA-MB-231) [µM] | inhibition [14] [%] | inhibition [15] [%] | inhibition [16] [%] | inhibition [17] [%] | inhibition [18] [%]
1 | O=C1c2ccccc2CN1c1nc(NC2CCCC2)c2nc[nH]c2n1 | 0 | 1 | 4 | 0 | 0 | 0 | 1 | 0 | 0 | 0 | 1 | 0 | 0 | 0 | 24.7 | 1 | 1 | 1 | 1 | 0
2 | O=c1c2ccccc2[se]n1-c1nc(N[C@@H]2C[C@H]3CC[C@@H]2C3)c2nc[nH]c2n1 | 0 | 0 | 1 | 0 | 0 | 2 | 0 | 0 | 1 | 0 | 4 | 2 | 0 | 0 | 32.4 | 4 | 2 | 2 | 3 | 8
